Reference: patent US20220193067A1, “QUINOLINE COMPOUND OR PHARMACEUTICALLY ACCEPTABLE SALT THEREOF FOR TREATING EWING'S SARCOMA” (CHIA TAI TIANQING PHARMACEUTICAL GROUP CO., LTD., priority 2019, published 2022)
Structures can show the parent of a compound that is named as a salt.

What was measured:
[1] = tested on: human Ewing's sarcoma cells A673; test: Effect on growth of Ewing's sarcoma, A673 subcutaneous xenograft in nude mice; format: in vivo, BALB/cA-nude mice; settings: 6.25 mg/kg orally daily for 14 consecutive days; A673 subcutaneous tumors in nude mice
Protocol: The dihydrochloride salt of the compound of formula I was dissolved in water to a concentration of 25 mg/mL and then further diluted with distilled water to a concentration of […].
BALB/cA-nude mice, feeding environment: SPF grade. Nude mice were inoculated subcutaneously with human Ewing's sarcoma cells A673, and randomly grouped (d0) after tumors grew to 100-250 mm^3.
The dihydrochloride of the compound of formula I (a dosage of 6.25 mg/kg) was orally administered daily to the animals in a volume of 10 mL/kg for 14 consecutive days. The tumor volume was measured 2-3 times per week, the mice were weighed, and the data was recorded.
The equation for calculating tumor volume (V) is as follows: V=½×a×b^2, where a and b represent length and width, respectively.
T/C (%)=(T-T0)/(C-C0)×100%, where T and C represent the tumor volumes of the administration group mice and the control group (i.e., solvent group) mice, respectively, at the end of the experiment; T0 and C0 represent the tumor volumes of administration group mice and the control group (i.e., solvent group) mice, respectively, at the time of grouping and administration (d0).
The equation for calculating relative tumor volume (RTV) after administration is as follows: RTV=TV/TV0 (TV represents tumor volume at each measurement after administration, and TV0 represents tumor volume at the time of grouping and administration (d0)).

[2] = tested on: Human Ewing's sarcoma cell line A673; test: Proliferation of Ewing's sarcoma cells (MTT method), combination with VAC-2 regimen; format: cell-based; settings: combined with 2 μg/mL vincristine, 75 μg/mL doxorubicin and 500 μg/mL cyclophosphamide
Protocol: The test drugs were dissolved in dimethyl sulfoxide to prepare a 100 mmol/L mother solution, which was stored at −20° C. for later use. When in use, the mother solution was prepared with a DMEM serum culture medium to reach a required concentration; vincristine, doxorubicin and cyclophosphamide were mixed (VAC-2 regimen), and the dihydrochloride diluent of the compound of formula I was mixed with vincristine, doxorubicin and cyclophosphamide. […]
The ICso value can be measured by a conventional method in the art (e.g., MTT method), or can be measured by the following method (MTT method):
Cells in logarithmic growth phase were inoculated in a 96-well culture plate (180 μL/well, 10^5 cells/well); after 2 h of incubation at 37° C./5% CO2, the cells were added with the dihydrochloride of the compound of formula I (solutions at gradient concentrations of 0, 0.005, 0.1, 0.05, 0.1, 0.5, 1.5, 4, 12 and 30 μg/mL), 2 μg/mL vincristine, 75 μg/mL doxorubicin and 500 μg/mL cyclophosphamide, and the resulting mixtures were incubated. […] The next day, OD values were measured at 570 nm and 630 nm wavelengths using a microplate reader (SPECTRA max 190) (calculated by subtracting OD values measured at 630 nm (the control wavelength) from all OD values measured at 570 nm), and the cell growth inhibition rate was calculated according to the following equation: […]

[3] = tested on: Human Ewing's sarcoma A673 cells; test: Apoptosis of Ewing's sarcoma cells, Annexin-V-FITC/PI flow cytometry; format: cell-based; settings: different concentrations (0-30 μg/mL) added to vincristine+doxorubicin+cyclophosphamide; 24 h
Protocol: Human Ewing's sarcoma A673 cells in logarithmic growth phase were added at 10^5 cells/well to a DMEM complete culture medium containing 2 μg/mL vincristine, 75 μg/mL doxorubicin and 500 μg/mL cyclophosphamide, and to a DMEM complete culture medium containing the dihydrochloride of the compound of formula I (at concentrations of 0, 0.005, 0.1, 0.05, 0.1, 0.5, 1.5, 4, 12 and 30 μg/mL), 2 μg/mL vincristine, 75 μg/mL doxorubicin and 500 μg/mL cyclophosphamide. The resulting mixtures were incubated for 24 h, and then the cells were collected, centrifuged at 1000 r/min for 3-5 min, and washed with PBS. Then the apoptosis of the cells was detected using an Annexin-V-FITC/PI apoptosis detection kit. The cells were resuspended in 100 μL of 1×Binding buffer solution, and 5 μL of Annexin-V-FITC and 2.5 μL of PI dye were added. The mixture was shaken and mixed well in the absence of light, reacted for 15 min at room temperature, added with 300 μL of 1×Binding buffer solution, mixed well, and then subjected to detection by a flow cytometer. The test was repeated 3 times.

Ewing's sarcoma patients = test: Clinical trial of capsule combined with VAC-2 regimen in Ewing's sarcoma patients; format: in vivo, human; settings: 12 mg capsule orally once daily, 2 weeks on/1 week off
Protocol: A clinical trial was carried out in Ewing's sarcoma patients with measurable lesions (according to RECIST 1.1) for the combination of the dihydrochloride capsule of the compound of formula I and a second therapeutic agent (VAC-2 regimen). Patients in the patient group comprised patients who had previously received chemotherapy and those who had not. The patients were orally administered with 12 mg of the dihydrochloride capsule of the compound of formula I once daily (2 weeks of treatment and 1 week of interruption constitute one treatment cycle), and meanwhile the patients were treated with the VAC-2 regimen: intravenous infusion of 2 mg of vincristine on day 1, intravenous infusion of 75 mg/m^2 of doxorubicin on day 1, and intravenous infusion of 1200 mg/m^2 of cyclophosphamide on day 1 (28 days constitute one cycle). The evaluation endpoints included: efficacy endpoints, e.g., progression-free survival (PFS), objective response rate (ORR), duration of response (DOR), stable disease (SD) rate, clinical benefit rate (CBR), overall survival (OS), etc.; safety endpoints, e.g., incidence and severity of adverse events; and quality of life.

COc1cc2c(Oc3ccc4[nH]c(C)cc4c3F)ccnc2cc1OCC1(N)CC1 [1-1-[[[4-(4-fluoro-2-methyl-1H-indol-5-yl)oxy-6-methoxyquinolin-7-yl]oxy]methyl]cyclopropylamine dihydrochloride] was tested, and the “growth of Ewing's sarcoma” value [1] was “significantly inhibit the growth of Ewing's sarcoma”, the “inhibition effect on proliferation of A673 cells” value [2] was “definite inhibition effect” and the “apoptosis caused by the VAC-2 regimen” value [3] was “remarkably enhance apoptosis”. For the same compound, the overall survival (Ewing's sarcoma patients) was “can prolong overall survival” and the “treatment of Ewing's sarcoma (efficacy)” value (Ewing's sarcoma patients) was “effective for treatment of Ewing's sarcoma”.
